Patent US20130324489A1, “NEW ANTIFUNGAL COMPOSITIONS” (DSM IP ASSETS B.V., priority 2011, published 2013)
Several values for one entry are separate records, joined by “and”; a condition that tells them apart may be missing. Identical values can stand only once.

Tests used:
[1] = test system: Penicillium italicum; assay: Treatment of wounded mandarins inoculated with Penicillium italicum (dip, mould growth); type: in vivo; conditions: 500 ppm natamycin, 2000 ppm procymidone or both, 20° C.
Description: (§1) Ten fresh, organic mandarins were used per treatment. The peel of each mandarin was wounded once using a cork borer according to the method described by de Lapeyre de Bellaire and Dubois (1987). Subsequently, each wound was inoculated with 10 μl of a Penicillium italicum suspension containing 1×10^4 of spores/ml. […] In addition, the antifungal compositions comprised 3.1% (w/w) beeswax, 0.76% (w/w) glycerol, 0.66% (w/w) polyoxyethylene sorbitan monostearate (Tween 60), 0.03% (w/w) methylhydroxyethylcellulose (MHEC), 0.02% (w/w) xanthan gum, 0.02% (w/w) anti-foaming agent, 0.15% (w/w) citric acid and 0.01% (w/w) potassium sorbate. The pH of the compositions was 4. A composition without natamycin or procymidone was used as control.
The treated mandarins were incubated in a closed box in the dark at 20° C. and assessed on mould growth after 6, 8, 10, 13, 15 and 18 days of incubation. The antifungal activity (in %) of the individual and combined active ingredients was determined by calculating the reduction in mould growth observed on the mandarins treated with the antifungal composition in comparison to the mould growth on the mandarins treated with the control composition according to the Colby method (Colby, 1967) described in Example 3.

[2] = test system: Botrytis cinerea; assay: Treatment of wounded apples inoculated with Botrytis cinerea (dip, mould growth); type: in vivo; conditions: 250 ppm natamycin, 20° C.
Description: as §1, with “Twelf” for “Ten”, “apples” for “mandarins”, “Each apple” for “The peel of each mandarin”, “Botrytis cinerea” for “Penicillium italicum”, “1×10^5” for “1×10^4”, “[…] The treated apples were incubated in a closed box in the dark at 20° C.” for “A composition without natamycin or procymidone was used as control.”
During incubation, the treated apples were assessed on mould growth according to the two methods described in Example 8.

[3] = test system: Penicillium italicum; assay: In vitro antifungal activity, 96-well microtiter plates; type: cell-based; conditions: 0.63 ppm natamycin, 25° C.
Description: Subsequently, 100 μl of a Botrytis cinerea suspension prepared in PCB medium was used to inoculated each well with 2.5×10^3 spores/ml.
After incubation of the microtiter plates at 25° C., the in vitro antifungal activity (%) of the individual active ingredients was assessed by calculating the reduction in mould growth observed in the presence of the active ingredient in comparison to the mould growth observed in the absence of the active ingredient. The expected antifungal activity (E in %) of the active ingredient combination was calculated according to the Colby equation (Colby, 1967): […]
wherein X and Y are the observed antifungal activities (in %) of the individual active ingredients X and Y, respectively. If the observed antifungal activity (O in %) of the combination exceeds the expected antifungal activity (E in %) of the combination and the resulting synergy factor O/E is thus >1.0, the combined application of the active ingredients leads to a synergistic antifungal effect.
The experiment was conducted as described in Example 10, except for the fact that the following compositions were tested:
Furthermore, Penicillium italicum was used for inoculation. The antifungal activity (in %) of the individual and combined active ingredients was determined according to the method described in Example 10.

[4] = 250 ppm procymidone or both, day 6
[5] = 250 ppm procymidone or both, day 7-11
[6] = 250 ppm procymidone or both, day 12-13
[7] = 250 ppm procymidone or both, day 13
[8] = 250 ppm procymidone or both, day 14
[9] = 250 ppm procymidone or both, day 14-25
[10] = 250 ppm procymidone or both, day 15
[11] = 250 ppm procymidone or both, day 17
[12] = 250 ppm procymidone or both, day 18
[13] = 250 ppm procymidone or both, day 20
[14] = 250 ppm procymidone or both, day 22
[15] = 250 ppm procymidone or both, day 25
[16] = 500 ppm procymidone or both, day 4
[17] = 500 ppm procymidone or both, day 5-6
[18] = 500 ppm procymidone or both, day 7-11
[19] = 500 ppm procymidone or both, day 12
[20] = 500 ppm procymidone or both, day 13
[21] = 500 ppm procymidone or both, day 14
[22] = 500 ppm procymidone or both, day 14-25
[23] = 500 ppm procymidone or both, day 15
[24] = 500 ppm procymidone or both, day 17
[25] = 500 ppm procymidone or both, day 18
[26] = 500 ppm procymidone or both, day 20
[27] = 500 ppm procymidone or both, day 22
[28] = 500 ppm procymidone or both, day 25
[29] = 5.0 ppm vinclozolin, 10 ppm procymidone, alone or natamycin + one of them, day 3
[30] = 50 ppm procymidone or both, day 5

SMILES | Observed antifungal activity O (%) ([1]; day 6) | Observed antifungal activity O (%) ([1]; day 8) | Observed antifungal activity O (%) ([1]; day 10) | Observed antifungal activity O (%) ([1]; day 13) | Observed antifungal activity O (%) ([1]; day 15) | Observed antifungal activity O (%) ([1]; day 18) | Number of moulded apples/total number of 12 apples [2, 4] | Number of moulded apples/total number of 12 apples [2, 5] | Number of moulded apples/total number of 12 apples [2, 6] | Observed antifungal activity O (%) [2, 7] | Observed antifungal activity O (%) [2, 8] | Number of moulded apples/total number of 12 apples [2, 9] | Observed antifungal activity O (%) [2, 10] | Observed antifungal activity O (%) [2, 11] | Observed antifungal activity O (%) [2, 12] | Observed antifungal activity O (%) [2, 13] | Observed antifungal activity O (%) [2, 14] | Observed antifungal activity O (%) [2, 15] | Number of moulded apples/total number of 12 apples [2, 16] | Number of moulded apples/total number of 12 apples [2, 17] | also measured
C[C@@H]1C/C=C/C=C/C=C/C=C/[C@H](O[C@@H]2O[C@H](C)[C@@H](O)[C@H](N)[C@@H]2O)C[C@@H]2O[C@](O)(C[C@@H](O)C[C@H]3O[C@@H]3/C=C/C(=O)O1)C[C@H](O)[C@H]2C(=O)O [Natamycin, natamycin] | 82% | 73% | 66% | 59% | 55% | 44% | 12/12 | 12/12 | 12/12 | 31% | 26% | 12/12 | 23% | 18% | 18% | 16% | 14% | 14% | 11 and 11/12 | 12 and 12/12 | Number of moulded apples/total number of 12 apples [2, 18]: 12 and 12/12; Number of moulded apples/total number of 12 apples [2, 19]: 12/12; Number of moulded apples/total number of 12 apples [2, 20]: 12/12; Observed antifungal activity O (%) [2, 20]: 31%; Observed antifungal activity O (%) [2, 21]: 26%; Number of moulded apples/total number of 12 apples [2, 22]: 12/12; Observed antifungal activity O (%) [2, 23]: 23%; Observed antifungal activity O (%) [2, 24]: 18%; Observed antifungal activity O (%) [2, 25]: 18%; Observed antifungal activity O (%) [2, 26]: 16%; Observed antifungal activity O (%) [2, 27]: 14%; Observed antifungal activity O (%) [2, 28]: 14%; Observed antifungal activity O (%) [3, 29]: 0%; Observed antifungal activity O (%) [3, 30]: 0%
CC12CC1(C)C(=O)N(c1cc(Cl)cc(Cl)c1)C2=O (centres unmarked) [Procymidone, procymidone] | 0% | 0% | 0% | 0% | 0% | 0% | 7 and 7/12 | 8 and 8/12 | 12/12 | 65% | 55% | 12/12 | 50% | 44% | 37% | 31% | 26% | 17% | 8 and 8/12 | 8 and 8/12 | Number of moulded apples/total number of 12 apples [2, 18]: 8 and 8/12; Number of moulded apples/total number of 12 apples [2, 19]: 10 and 10/12; Number of moulded apples/total number of 12 apples [2, 20]: 11 and 11/12; Observed antifungal activity O (%) [2, 20]: 75%; Observed antifungal activity O (%) [2, 21]: 71%; Number of moulded apples/total number of 12 apples [2, 22]: 12/12; Observed antifungal activity O (%) [2, 23]: 67%; Observed antifungal activity O (%) [2, 24]: 57%; Observed antifungal activity O (%) [2, 25]: 51%; Observed antifungal activity O (%) [2, 26]: 45%; Observed antifungal activity O (%) [2, 27]: 38%; Observed antifungal activity O (%) [2, 28]: 26%; Observed antifungal activity O (%) [3, 29]: 0%; Observed antifungal activity O (%) [3, 30]: 0%
